Paper PMC10313671, “Accelerating the prediction and discovery of peptide hydrogels with human-in-the-loop” (Nature Communications, 2023)
Where a SMILES comes first, the peptide text is derived from it.

Experiments:
[1] = Peptide hydrogel formation, vial-inverting method; assay type: physicochemical; parameters: key to EXP / GELATION: 0: no hydrogel; 1: hydrogel; details: for State: ultrasonication, standing 48 h; for State / GELATION / hydrogel formation (in words): vial-inverting method; for Concentration: concentration at which the state was recorded: lowest of 30, 60, 90, 120 mM that gave a gel, 120 mM for non-gelating peptides; for GELATION: 1 = hydrogel, 0 = no hydrogel; for EXP: experimental gelation result of the synthesized peptide; for hydrogel formation (in words): representative hydrogels pH between 7.0 to 7.5
Experimental: After validating the efficiency of APHC in predicting tetrapeptide hydrogels, we detailed the phase state of 165 synthesized tetrapeptides and the observed assembly behavior in an aqueous solution.
This work defines hydrogel formation as a self-supporting, non-flowing mixture of water and hydrogelator by the vial-inverting method. All purified tetrapeptides were dissolved in ultrapure water (to form a 30 mM solution initially), followed by the stepwise addition of 1 N NaOH solution to adjust the overall aqueous pH to 6.5–8.5. Meanwhile, a short-term ultrasonication treatment was applied after each pH adjustment to facilitate peptide solubilization and speed up peptide self-assembly. […] The mixture was allowed to stand in for another 48 h for complete hydrogelation. Upon the absence of gelation phenomenon during the aforementioned loops, we increased the peptide concentration (60 mM, 90 mM, and 120 mM were selected) and re-started such gelation operation loop to explore their gelation feasibility.

[2] = Transmission electron microscope (negative staining) of peptide assemblies; details: for Morphology: TEM, negative staining with uranyl acetate, 120 kV
Experimental: We used the negative staining technique to observe the morphologies formed by peptides. A micropipette was used to load 10 μL of sample solution to a carbon-coated copper grid, and we used a piece of filter paper to remove the excess solution. After rinsing the grid with the deionized water, we used uranyl acetate to stain the sample for 1 minute and then rinsed the grid with deionized water again.

[3] = 120 mM peptide (highest tested) in ultrapure water, pH 6.5-8.5 (1 N NaOH), precipitate, sol, suspension = no gel
[4] = 30 mM peptide in ultrapure water, pH adjusted to 6.5-8.5 with 1 N NaOH, concentration raised 30/60/90/120 mM until gelation
[5] = 60 mM peptide in ultrapure water, pH 6.5-8.5 (1 N NaOH), no gel at 30 mM

Row | Compound | State [1, 3] | Concentration [1] | GELATION ([1]; peptide concentration 120 mM) | Morphology ([2]; line of the table gives 120 mM) | other results
1 | C[C@H](NC(=O)[C@H](Cc1ccc(O)cc1)NC(=O)[C@@H](N)Cc1ccccc1)C(=O)N[C@@H](Cc1ccc(O)cc1)C(=O)O [FYAY] (H-FYAY-OH) | gel | 120000 µM | 1 | sheet | 
2 | NCC(=O)N[C@@H](Cc1ccccc1)C(=O)N[C@@H](Cc1ccccc1)C(=O)N[C@@H](Cc1ccc(O)cc1)C(=O)O [GFFY] (H-GFFY-OH) |  | 30000 µM |  |  | State [1, 4]: gel; GELATION ([1]; peptide concentration 30 mM): 1; Morphology ([2]; line of the table gives 30 mM): sheet
3 | NCC(=O)NCC(=O)NCC(=O)NCC(=O)O [GGGG] (H-GGGG-OH) | sol | 120000 µM | 0 | aggregates | 
4 | CC(C)C[C@H](NC(=O)CN)C(=O)N[C@@H](CC(C)C)C(=O)N[C@@H](Cc1ccc(O)cc1)C(=O)O [GLLY] (H-GLLY-OH) | suspension | 120000 µM | 0 | sheet | EXP [1]: 0
5 | CC(C)[C@H](NC(=O)CN)C(=O)N[C@@H](Cc1ccccc1)C(=O)N[C@@H](Cc1ccc(O)cc1)C(=O)O [GVFY] (H-GVFY-OH) |  | 30000 µM |  |  | State [1, 4]: gel; GELATION ([1]; peptide concentration 30 mM): 1; Morphology ([2]; line of the table gives 30 mM): fibre
6 | CC(C)C[C@H](NC(=O)[C@@H](NC(=O)CN)C(C)C)C(=O)N[C@@H](Cc1ccccc1)C(=O)O [GVLF] (H-GVLF-OH) |  | 60000 µM |  |  | State [1, 5]: gel; GELATION ([1]; peptide concentration 60 mM): 1; Morphology ([2]; line of the table gives 60 mM): rod
7 | CSCC[C@H](NC(=O)[C@H](CC(N)=O)NC(=O)[C@@H](NC(=O)CN)C(C)C)C(=O)O [GVNM] (H-GVNM-OH) | suspension | 120000 µM | 0 | sphere | 
8 | N[C@@H](Cc1c[nH]cn1)C(=O)N[C@@H](Cc1c[nH]cn1)C(=O)N[C@@H](Cc1c[nH]cn1)C(=O)N[C@@H](Cc1c[nH]cn1)C(=O)O [HHHH] (H-HHHH-OH) | sol | 120000 µM | 0 | aggregates | 
9 | CC(C)C[C@H](NC(=O)[C@H](CC(C)C)NC(=O)[C@@H](N)Cc1c[nH]cn1)C(=O)N[C@@H](Cc1ccccc1)C(=O)O [HLLF] (H-HLLF-OH) |  | 90000 µM |  |  | State ([1]; 90 mM peptide in ultrapure water, pH 6.5-8.5 (1 N NaOH), no gel at lower concentrations): gel; GELATION ([1]; peptide concentration 90 mM): 1; Morphology ([2]; line of the table gives 90 mM): sheet
10 | CC[C@H](C)[C@H](N)C(=O)N[C@@H](Cc1ccccc1)C(=O)N[C@H](C(=O)N[C@@H](Cc1ccc(O)cc1)C(=O)O)[C@@H](C)CC [IFIY] (H-IFIY-OH) |  | 60000 µM |  |  | State [1, 5]: gel; GELATION ([1]; peptide concentration 60 mM): 1; Morphology ([2]; line of the table gives 60 mM): hybrid(particle+fibre)
11 | CC[C@H](C)[C@H](N)C(=O)N[C@@H](Cc1ccccc1)C(=O)N[C@@H](Cc1ccc(O)cc1)C(=O)N[C@H](C(=O)O)[C@@H](C)O [IFYT] (H-IFYT-OH) |  | 60000 µM |  |  | State [1, 5]: gel; GELATION ([1]; peptide concentration 60 mM): 1; hydrogel formation (in words) [1]: hydrogels; Morphology ([2]; line of the table gives 60 mM): sheet; morphology by TEM (in words) ([2]; aqueous solution or hydrogel, negative staining): interlaced nanosheets
12 | CC[C@H](C)[C@H](N)C(=O)N[C@@H](Cc1c[nH]cn1)C(=O)N[C@@H](Cc1ccccc1)C(=O)N[C@H](C(=O)O)C(C)C [IHFV] (H-IHFV-OH) | sol | 120000 µM | 0 | sphere | 
13 | CC[C@H](C)[C@H](N)C(=O)N[C@H](C(=O)N[C@H](C(=O)N[C@H](C(=O)O)[C@@H](C)CC)[C@@H](C)CC)[C@@H](C)CC [IIII] (H-IIII-OH) |  | 30000 µM |  |  | State [1, 4]: gel; GELATION ([1]; peptide concentration 30 mM): 1; Morphology ([2]; line of the table gives 30 mM): needle
14 | CC[C@H](C)[C@H](N)C(=O)N[C@H](C(=O)N[C@H](C(=O)N[C@@H](CCCNC(=N)N)C(=O)O)[C@@H](C)CC)[C@@H](C)CC [IIIR] (H-IIIR-OH) | suspension | 120000 µM | 0 | aggregates | 
15 | CC[C@H](C)[C@H](N)C(=O)N[C@@H](CC(C)C)C(=O)N[C@H](C(=O)N[C@H](C(=O)O)C(C)C)C(C)C [ILVV] (H-ILVV-OH) |  | 30000 µM |  |  | State [1, 4]: gel; GELATION ([1]; peptide concentration 30 mM): 1; Morphology ([2]; line of the table gives 30 mM): aggregates
16 | CC[C@H](C)[C@H](N)C(=O)N[C@@H](CCSC)C(=O)N[C@H](C(=O)N[C@H](C(=O)O)C(C)C)C(C)C [IMVV] (H-IMVV-OH) |  | 30000 µM |  |  | State [1, 4]: gel; GELATION ([1]; peptide concentration 30 mM): 1; hydrogel formation (in words) [1]: can form hydrogel; Morphology ([2]; line of the table gives 30 mM): aggregates
17 | CC[C@H](C)[C@H](N)C(=O)N[C@@H](CCC(N)=O)C(=O)N[C@H](C(=O)N[C@H](C(=O)O)[C@@H](C)CC)[C@@H](C)CC [IQII] (H-IQII-OH) |  | 60000 µM |  |  | State [1, 5]: gel; GELATION ([1]; peptide concentration 60 mM): 1; Morphology ([2]; line of the table gives 60 mM): hybrid(sphere+fibre)
18 | CC[C@H](C)[C@H](N)C(=O)N[C@@H](CCCNC(=N)N)C(=O)N[C@H](C(=O)N[C@@H](Cc1c[nH]c2ccccc12)C(=O)O)C(C)C [IRVW] (H-IRVW-OH) | suspension | 120000 µM | 0 | sphere | 
19 | CC[C@H](C)[C@H](N)C(=O)N[C@H](C(=O)N[C@@H](Cc1ccccc1)C(=O)N[C@@H](Cc1c[nH]c2ccccc12)C(=O)O)C(C)C [IVFW] (H-IVFW-OH) | gel | 120000 µM | 1 | sphere | 
20 | CC[C@H](C)[C@H](N)C(=O)N[C@H](C(=O)N[C@H](C(=O)N[C@@H](Cc1ccccc1)C(=O)O)[C@@H](C)CC)C(C)C [IVIF] (H-IVIF-OH) |  | 30000 µM |  |  | State [1, 4]: gel; GELATION ([1]; peptide concentration 30 mM): 1; Morphology ([2]; line of the table gives 30 mM): sphere
21 | CC[C@H](C)[C@H](N)C(=O)N[C@H](C(=O)N[C@H](C(=O)N[C@H](C(=O)O)[C@@H](C)CC)[C@@H](C)CC)C(C)C [IVII] (H-IVII-OH) |  | 30000 µM |  |  | State [1, 4]: gel; GELATION ([1]; peptide concentration 30 mM): 1; Morphology ([2]; line of the table gives 30 mM): sheet
22 | CC[C@H](C)[C@H](N)C(=O)N[C@H](C(=O)N[C@H](C(=O)N[C@@H](Cc1ccc(O)cc1)C(=O)O)[C@@H](C)CC)C(C)C [IVIY] (H-IVIY-OH) |  | 60000 µM |  |  | State [1, 5]: gel; GELATION ([1]; peptide concentration 60 mM): 1; Morphology ([2]; line of the table gives 60 mM): aggregates
23 | CC[C@H](C)[C@H](N)C(=O)N[C@@H](Cc1c[nH]c2ccccc12)C(=O)N[C@H](C(=O)N[C@H](C(=O)O)[C@@H](C)CC)[C@@H](C)CC [IWII] (H-IWII-OH) | suspension | 120000 µM | 0 | aggregates | EXP [1]: 0
24 | CC[C@H](C)[C@H](N)C(=O)N[C@@H](Cc1c[nH]c2ccccc12)C(=O)N1CCC[C@H]1C(=O)N[C@@H](Cc1c[nH]c2ccccc12)C(=O)O [IWPW] (H-IWPW-OH) | precipitate | 120000 µM | 0 | aggregates | 
25 | CC(C)C[C@H](NC(=O)[C@H](CC(C)C)NC(=O)[C@H](Cc1ccccc1)NC(=O)[C@@H](N)CCCCN)C(=O)O [KFLL] (H-KFLL-OH) | sol | 120000 µM |  | aggregates | 
26 | NCCCC[C@H](NC(=O)[C@H](CCCCN)NC(=O)[C@H](CCCCN)NC(=O)[C@@H](N)CCCCN)C(=O)O [KKKK] (H-KKKK-OH) | sol | 120000 µM | 0 | blank | 
27 | CC(C)C[C@H](NC(=O)[C@H](CC(C)C)NC(=O)[C@@H](N)CCCCN)C(=O)N[C@@H](Cc1ccccc1)C(=O)O [KLLF] |  | 30000 µM |  |  | State [1, 4]: gel; GELATION ([1]; peptide concentration 30 mM): 1; Morphology ([2]; line of the table gives 30 mM): particle
28 | CSCC[C@H](NC(=O)[C@@H](N)CCCCN)C(=O)N[C@@H](CC(C)C)C(=O)N[C@@H](Cc1ccccc1)C(=O)O [KMLF] (H-KMLF-OH) | suspension | 120000 µM | 0 | aggregates | 
29 | CC(C)C[C@H](NC(=O)[C@H](Cc1c[nH]c2ccccc12)NC(=O)[C@@H](NC(=O)[C@@H](N)CCCCN)C(C)C)C(=O)O [KVWL] (H-KVWL-OH) |  | 60000 µM |  |  | State [1, 5]: gel; GELATION ([1]; peptide concentration 60 mM): 1; Morphology ([2]; line of the table gives 60 mM): fibre
30 | CC(C)C[C@H](NC(=O)[C@H](C)NC(=O)[C@@H](N)CC(C)C)C(=O)N[C@@H](CCCNC(=N)N)C(=O)O [LALR] (H-LALR-OH) | suspension | 120000 µM | 0 | aggregates | 
